{"source": "patent US20190201489A1", "about": "“COMPOSITIONS AND METHODS FOR PREVENTING BONE LOSS AND/OR STIMULATING BONE HEALING” (NORTHEAST OHIO MEDICAL UNIVERSITY, priority 2016, published 2019)", "key": {"ZCCHC6": {"test_system": "ZCCHC6", "test": "ZCCHC6 expression in IL-1β-stimulated chondrocytes", "format": "cell-based", "conditions": "human chondrocytes stimulated with IL-1β, n=4", "experimental": "(§1) Chondrocytes were derived by enzymatic digestion of human cartilage obtained from OA patients (n=14) undergoing knee joint replacement. Chondrocytes were stimulated with IL-1β (5 ng/ml) or treated with Actinomycin D (5 μg/ml) or NFκB inhibitor SC514 (75 μM) or JNK inhibitor (25 μM). Total RNA from grounded cartilage and from chondrocytes was purified using Qiagen RNeasy kit (Qiagen). Reverse transcription was performed using the Quantitect Reverse Transcription kit and the ZCCHC6 or IL-6 mRNA was quantified using TaqMan assays. SiRNA-mediated depletion of ZCCHC6 in human chondrocytes was used to study the effect on inflammatory cytokine expression using a cytokine array (Ray Biotech). Protein expression of IL-6 was studied using Western immunoblotting and quantified by ELISA in culture supernatants. Results were derived using Sigma Plot 12.3 package and p<0.05 was considered significant."}, "IL-6 mRNA": {"test_system": "IL-6 mRNA", "test": "IL-6 mRNA expression in chondrocytes by TaqMan assay", "format": "cell-based", "conditions": "human chondrocytes stimulated with IL-1β, n=4", "experimental": "as §1"}}, "data": [{"substance": "Interleukin-1β [IL-1β]", "values": [{"measurement": "increase in expression of ZCCHC6", "setting": "ZCCHC6", "value": 11.3, "unit": "fold"}, {"measurement": "increase in mRNA of IL-6", "setting": "IL-6 mRNA", "value": 4956, "unit": "fold"}]}]}
